Test results taken from US7008636B2, “2,3,5-substituted biphenyls useful in the treatment of insulin resistance and hyperglycemia” (Wyeth, priority 1998, dated 2006).

Columns and labels:
[1] = target: T1, recombinant, human protein tyrosine phosphatase (PTP) 1B (hPTP1B) (Homo sapiens, UniProt P18031); test: Inhibition of tri-phosphorylated insulin receptor dodecaphosphopeptide dephosphorylation by hPTP1B; type: biochemical; conditions: 50 μM IR triphosphopeptide substrate, 5 min preincubation and 5 min reaction at 37° C., malachite green-ammonium molybdate phosphate detection
T1 construct: made in house
T1 sequence (P18031 1-435): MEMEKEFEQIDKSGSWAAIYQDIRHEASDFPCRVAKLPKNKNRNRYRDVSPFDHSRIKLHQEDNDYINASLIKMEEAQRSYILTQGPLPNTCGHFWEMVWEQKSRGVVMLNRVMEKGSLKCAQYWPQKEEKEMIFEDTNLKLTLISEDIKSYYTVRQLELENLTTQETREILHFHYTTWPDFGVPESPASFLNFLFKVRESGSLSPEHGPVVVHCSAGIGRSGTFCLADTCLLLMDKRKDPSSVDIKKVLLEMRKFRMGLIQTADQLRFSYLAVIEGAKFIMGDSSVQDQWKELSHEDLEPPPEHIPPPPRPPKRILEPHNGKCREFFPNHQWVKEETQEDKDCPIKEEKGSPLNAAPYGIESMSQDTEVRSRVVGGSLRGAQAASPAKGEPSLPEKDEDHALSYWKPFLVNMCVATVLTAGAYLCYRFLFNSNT

Row | IC50 [1] [nM] | melting point | Structure (SMILES)
1 | 710 | 74.7 to 75.9 °C | O=C(O)COCCOc1c(-c2cccc(C(F)(F)F)c2)cc(C(=O)NCCCCCCc2ccccc2)cc1-c1cccc(C(F)(F)F)c1 [Example 18, {2-[5′-(6-Phenyl-hexylcarbamoyl)-3,3″-bis-trifluoromethyl-[1,1′;3′,1″]terphenyl-2′-yloxy]-ethoxy}acetic acid]
2 | 728 | 149.9 to 150.6 °C | O=C(O)COc1c(-c2cccc(C(F)(F)F)c2)cc(C(=O)NCCCCCCOCc2ccc(F)cc2F)cc1-c1cccc(C(F)(F)F)c1 [Example 19, {5′-[6-(2,4-Difluoro-benzyloxy)-hexylcarbamoyl]-3,3″-bis-trifluoromethyl-[1,1′;3′1″]terphenyl-2′yloxy}-acetic acid]
3 | 379 | 133.2 to 133.9 °C | O=C(O)COc1c(-c2cccc(C(F)(F)F)c2)cc(C(=O)NCCCCCCOCc2ccc(-c3ccccc3)cc2)cc1-c1cccc(C(F)(F)F)c1 [Example 20, {5′-[6-(Biphenyl-4-ylmethoxy)-hexylcarbamoyl]-3,3″-bis-trifluoromethyl-[1,1′;3′,1″]terphenyl-2′-yloxy}-acetic acid]
4 | 880 | 148.9 to 149.7 °C | COc1cccc(-c2cccc(-c3cc(OC)cc(C(=O)N(C)CCCCCCCCc4ccccc4)c3)c2OCC(=O)O)c1 [Example 21, {3,3″-Dimethoxy-5″-[methyl-(8-phenyl-octyl)-carbamoyl]-[1,1′;3′,1″]terphenyl-2′-yloxy}-acetic acid]
5 | 250 | 78.5 to 79.9 °C | O=C(O)COCCOc1c(-c2cc(Cl)cc(Cl)c2)cc(C(=O)NCCCCCCc2ccccc2)cc1-c1cc(Cl)cc(Cl)c1 [Example 22]
6 | 365 | > 95 °C | COc1ccc(-c2cc(C(=O)NCCCCCCCCc3ccccc3)cc(-c3ccc(OC)cc3)c2OCC(=O)[O-])cc1.[Na+] [Example 23, [4,4″-Dimethoxy-5′-(8-phenyl-octylcarbamoyl)-[1,1′;3′,1″]terphenyl-2′yloxy]acetic acid sodium salt]
7 |  | > 84 °C (dec.) | O=C(O)COc1c(Br)cc(C(=O)NCCCCCCc2ccccc2)cc1-c1ccccc1F [Example 79, [3-Bromo-2′-fluoro-5-(6-phenyl-hexylcarbamoyl)-biphenyl-2-yloxy]acetic acid]
8 |  | 100 to 101 °C | CCCCCCCCCCCCNC(=O)c1cc(Br)c(OCCn2cnnn2)c(-c2cccc(OC)c2)c1 [Example 138, 5-Bromo-6-(2-tetrazol-1-yl-ethoxy)-3′-methoxy-biphenyl-3-carboxylic acid dodecylamide]
9 |  | 153 to 159 °C | COc1ccc(-c2cc(C(=O)NCCCCCCc3ccccc3)cc(-c3cccc(C(F)(F)F)c3)c2OCC(=O)O)cc1 [Example 157, [4″-Methoxy-5′-(6-phenyl-hexylcarbamoyl)-3-trifluoromethyl-[1,1′;3′,1″]terphenyl-2′-yloxy]acetic acid]
10 |  | 70.5 to 72.5 °C | CCCCCCCCCCCCNC(=O)c1cc(Br)c(OCCn2ccnn2)c(-c2cccc(C(F)(F)F)c2)c1 [Example 181, 5-Bromo-6-(2-[1,2,3]triazol-1-yl-ethoxy)-3′-trifluoromethyl-biphenyl-3-carboxylic acid dodecylamide]
11 |  | 75.6 to 76.2 °C | CCCCCCCCCCCCNC(=O)c1cc(Br)c(OCCn2ncnn2)c(-c2cccc(C(F)(F)F)c2)c1 [Example 182, 5-Bromo-6-(2-tetrazol-2-yl-ethoxy)-3′-trifluoromethyl-biphenyl-3-carboxylic acid dodecylamide]
12 |  | 91.5 to 92.6 °C | CCCCCCCCCCCCNC(=O)c1cc(Br)c(OCCn2cnnn2)c(-c2cccc(C(F)(F)F)c2)c1 [Example 183, 5-Bromo-6-(2-tetrazol-1-yl-ethoxy)-3′-trifluoromethyl-biphenyl-3-carboxylic acid dodecylamide]
13 |  | 122.5 to 125.1 °C | CCCCCCCCCCCCNC(=O)c1cc(Br)c(OCCNC(N)=O)c(-c2cccc(C(F)(F)F)c2)c1 [Example 187, 5-Bromo-3′-trifluoromethyl-6-(2-ureido-ethoxy)-biphenyl-3-carboxylic acid dodecylamide]
14 |  | 79.6 to 80.5 °C | CCCCCCCCCCCCNC(=O)c1cc(Br)c(OCCNC(=O)OC)c(-c2cccc(C(F)(F)F)c2)c1 [Example 188, [2-(3-Bromo-5-dodecylcarbamoyl-3′-trifluoromethyl-biphenyl-2-yloxy)-ethyl]-carbamic acid methyl ester]

Further lines, the compound ahead of its results:

Row | Structure (SMILES) | IC50 [1] [nM] | melting point
15 | CCCCCCCCCCCCNC(=O)c1cc(-c2ccccc2)c(OCC(=O)O)c(-c2ccccc2)c1 [Example 8, (5′-Dodecylcarbamoyl-[1,1′;3′,1″]terphenyl-2′-yloxy)-acetic acid] | 195 | 150 to 153 °C
16 | CCCCCCCCCCCCNC(=O)c1cc(-c2ccc(OC)cc2)c(OCC(=O)O)c(-c2ccc(OC)cc2)c1 [Example 9, (5′-Dodecylcarbamoyl-4,4″-dimethoxy-[1,1′;3′,1″]terphenyl-2′-yloxy)-acetic acid] | 165 | 65 to 68 °C
17 | CCCCCCCCCCCCNC(=O)c1cc(-c2ccc(OC)cc2)c(OCC(=O)O)c(-c2cccc(Cl)c2)c1 [Example 10, (3-Chloro-5′-dodecylcarbamoyl-4″-methoxy-[1,1°;3′]terphenyl-2′-yloxy)-acetic acid] | 102 | 114 to 117 °C
18 | CCCCCCCCCCCCNC(=O)c1cc(-c2cccc(OC)c2)c(OCC(=O)O)c(-c2cccc(OC)c2)c1 [Example 11, (5′-Dodecylcarbamoyl-3,3″-dimethoxy-[1,1′;3′1″]terphenyl-2′-yloxy)-acetic acid] | 115 | 57 to 58 °C
19 | CC(C)(C)c1ccc(COCCCCCCNC(=O)c2cc(-c3cccc(C(F)(F)F)c3)c(OCC(=O)O)c(-c3cccc(C(F)(F)F)c3)c2)cc1 [Example 13, {5′-[6-(4-tert-Butyl-benzyloxy)-hexylcarbamoyl]-3,3″-bis-trifluoromethyl-[1,1′;3′,1″]terphenyl-2′-yloxy}-acetic acid] | 320 | 156 to 158 °C
20 | O=C(O)COc1c(-c2cccc(C(F)(F)F)c2)cc(C(=O)NCCCCCCOCc2ccc(OCc3ccccc3)cc2)cc1-c1cccc(C(F)(F)F)c1 [Example 14, {5′-[6-(4-Benzyloxy-benzyloxy)-hexylcarbamoyl]-3,3″-bis-trifluoromethyl-[1,1′;3′1″]terphenyl-2′-yloxy}-acetic acid] | 366 | 127 to 130 °C
21 | COc1ccc(-c2cc(C(=O)NCCCCCCCCc3ccccc3)cc(-c3cccc(Cl)c3)c2OCC(=O)O)cc1 [Example 15, [3″-Chloro-4-methoxy-5′-(8-phenyl-octylcarbamoyl)-[1,1′;3′,1″]terphenyl-2′-yloxy]-acetic acid] | 186 | 79.2 to 80.5 °C
22 | COc1ccc(-c2cc(C(=O)N(C)CCCCCCCCc3ccccc3)cc(-c3cccc(Cl)c3)c2OCC(=O)O)cc1 [Example 16, {3″-Chloro-4-methoxy-5′-[methyl-(8-phenyl-octyl)-carbamoyl]-[1,1′;3′, 1″]terphenyl-2′-yloxy}-acetic acid] | 343 | 66.8 to 67.5 °C
23 | COc1cccc(-c2cc(C(=O)NCCCCCCCCc3ccccc3)cc(-c3cccc(OC)c3OCC(=O)O)c2)c1 [Example 17, [3,3″-Dimethoxy-5′-(8-phenyl-octylcarbamoyl)-[1,1′;3′,1″]terphenyl-2-yloxy]-acetic acid] | 284 | 67.3 to 68.7 °C
